Values of other authors as cited in patent publication US12728131B2, “Compositions for the treatment of glaucoma and ocular hypertension” (Nicox S.A., priority 2020, dated 2026).
Where two headings read alike, the source gives them in different places.

Details: phase 2 dose-ranging VOYAGER study

| Structure (SMILES) | reduction in mean diurnal IOP (0.005%) [mmHg] | reduction in mean diurnal IOP (0.024%) [mmHg] |
| --- | --- | --- |
| CC(C)OC(=O)CCC/C=C\C[C@@H]1[C@@H](CC[C@@H](O)CCc2ccccc2)[C@H](O)C[C@@H]1O [latanoprost, propan-2-yl (Z)-7-[(1R,2R,3R,5S)-3,5-dihydroxy-2-[(3R)-3-hydroxy-5-phenylpentyl]cyclopentyl]hept-5-enoate] | 7.77 |  |
| O=C(CCC/C=C\C[C@@H]1[C@@H](CC[C@@H](O)CCc2ccccc2)[C@H](O)C[C@@H]1O)OCCCCO[N+](=O)[O-] [latanoprostene bunod] |  | 9.0 |
